Measured values published in patent US8637511B2, “Aminopyrimidines useful as kinase inhibitors” (Vertex Pharmaceuticals Incorporated, priority 2005, dated 2014).
pIC50, pKi: −log10 of the molar value. Read-outs that look alike come from different tables or passages of the source.

Key:
[1] = biological target: T1, JAK3 (Homo sapiens, UniProt P52333); assay: biochemical
T1 sequence (P52333 1-1124): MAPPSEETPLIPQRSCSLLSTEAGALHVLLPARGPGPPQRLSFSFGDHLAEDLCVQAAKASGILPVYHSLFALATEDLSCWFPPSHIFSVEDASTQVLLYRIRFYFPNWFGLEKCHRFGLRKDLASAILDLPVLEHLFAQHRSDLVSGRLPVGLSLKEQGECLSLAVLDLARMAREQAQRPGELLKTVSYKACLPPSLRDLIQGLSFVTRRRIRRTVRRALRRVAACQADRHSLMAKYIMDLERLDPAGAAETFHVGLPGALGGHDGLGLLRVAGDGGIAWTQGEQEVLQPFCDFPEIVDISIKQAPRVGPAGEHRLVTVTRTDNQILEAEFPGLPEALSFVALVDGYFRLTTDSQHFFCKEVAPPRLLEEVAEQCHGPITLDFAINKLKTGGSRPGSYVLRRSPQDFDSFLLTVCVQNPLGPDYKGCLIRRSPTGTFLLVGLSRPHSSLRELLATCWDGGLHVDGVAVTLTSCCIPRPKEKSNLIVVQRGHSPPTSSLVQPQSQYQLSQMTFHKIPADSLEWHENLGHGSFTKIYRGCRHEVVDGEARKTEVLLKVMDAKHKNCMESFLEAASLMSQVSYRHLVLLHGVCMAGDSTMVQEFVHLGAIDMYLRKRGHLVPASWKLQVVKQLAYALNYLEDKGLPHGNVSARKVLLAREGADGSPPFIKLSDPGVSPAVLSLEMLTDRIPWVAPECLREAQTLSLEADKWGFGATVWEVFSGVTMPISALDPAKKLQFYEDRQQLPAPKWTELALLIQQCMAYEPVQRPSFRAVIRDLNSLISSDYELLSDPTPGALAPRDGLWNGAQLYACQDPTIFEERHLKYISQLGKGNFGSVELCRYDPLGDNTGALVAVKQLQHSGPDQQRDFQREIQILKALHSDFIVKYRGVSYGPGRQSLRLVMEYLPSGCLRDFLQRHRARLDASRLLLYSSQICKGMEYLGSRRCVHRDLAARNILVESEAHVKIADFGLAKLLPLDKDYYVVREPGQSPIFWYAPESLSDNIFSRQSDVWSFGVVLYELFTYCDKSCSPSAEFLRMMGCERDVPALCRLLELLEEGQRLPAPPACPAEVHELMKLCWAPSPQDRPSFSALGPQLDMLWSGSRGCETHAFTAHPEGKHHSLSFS

[2] = system: Colo205 cells; assay: Analysis of cell proliferation and viability; assay type: cell-based; conditions: Homo sapiens, read-out: IC50 value
Procedure: Colo205 cells were seeded in 96 well plates and serially diluted compound was added to the wells in duplicate. Control groups included untreated cells, the compound diluent (0.1% DMSO alone) and culture medium without cells.
To measure proliferation, 3 h prior to the end of the experiment 0.5 μCi of 3H thymidine was added to each well. Cells were then harvested and the incorporated radioactivity counted on a Wallac microplate beta-counter. Cell viability was assessed using Promega CellTiter 96AQ to measure MTS conversion. Dose response curves were calculated using either Prism 3.0 (GraphPad) or SoftMax Pro 4.3.1 LS (Molecular Devices) software.

[3] = biological target: Aurora-1 (Aurora B) (Homo sapiens, UniProt Q96GD4); assay: Aurora-1 (Aurora B) inhibition assay (radiometric); assay type: biochemical; conditions: read-out: Aurora B kinase Ki value
Procedure: An assay buffer solution was prepared which consisted of 25 mM HEPES (pH 7.5), 10 mM MgCl2, 0.1% BSA and 10% glycerol. […] To 22 μL of the Aurora-B solution, in a 96-well plate, was added 2 μl of a compound stock solution in DMSO and the mixture allowed to equilibrate for 10 minutes at 25° C. The enzyme reaction was initiated by the addition of 16 μl stock [γ-^33P]-ATP solution (˜20 nCi/μL) prepared in assay buffer, to a final assay concentration of 800 μM. The reaction was stopped after 3 hours by the addition of 16 μL 500 mM phosphoric acid and the levels of ^33P incorporation into the peptide substrate were determined by the following method.
A phosphocellulose 96-well plate (Millipore, Cat no. MAPHNOB50) was pre-treated with 100 μL of a 100 mM phosphoric acid prior to the addition of the enzyme reaction mixture (40 μL). The solution was left to soak on to the phosphocellulose membrane for 30 minutes and the plate subsequently washed four times with 200 μL of a 100 mM phosphoric acid. […] Levels of non-enzyme catalyzed background radioactivity were determined by adding 16 μL of the 500 mM phosphoric acid to control wells, containing all assay components (which acts to denature the enzyme), prior to the addition of the [γ-^33P]-ATP solution. Levels of enzyme catalyzed. ^33P incorporation were calculated by subtracting mean background counts from those measured at each inhibitor concentration. […] Ki values were calculated from initial rate data by non-linear regression using the Prism software package (Prism 3.0, Graphpad Software, San Diego, Calif.).

[4] = biological target: T2, Aurora-2 (Aurora A) (Homo sapiens, UniProt O14965); assay: Aurora-2 (Aurora A) inhibition assay, coupled enzyme; assay type: biochemical
T2 sequence (O14965 1-403): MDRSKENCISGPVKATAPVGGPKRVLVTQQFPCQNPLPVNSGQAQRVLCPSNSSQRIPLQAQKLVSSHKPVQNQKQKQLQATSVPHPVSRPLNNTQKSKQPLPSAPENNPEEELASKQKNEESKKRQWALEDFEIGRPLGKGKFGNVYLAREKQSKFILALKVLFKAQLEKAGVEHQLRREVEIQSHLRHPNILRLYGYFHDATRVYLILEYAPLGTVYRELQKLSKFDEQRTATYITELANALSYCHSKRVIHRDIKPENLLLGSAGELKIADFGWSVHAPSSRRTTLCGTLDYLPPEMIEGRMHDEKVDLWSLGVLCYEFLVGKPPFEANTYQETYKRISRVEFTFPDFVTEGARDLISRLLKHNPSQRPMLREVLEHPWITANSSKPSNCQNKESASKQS
Procedure: Assays were carried out in a mixture of 100 mM Hepes (pH7.5), 10 mM MgCl2, 1 mM DTT, 25 mM NaCl, 2.5 mM phosphoenolpyruvate, 300 μM NADH, 30 μg/ml pyruvate kinase and 10 μg/ml lactate dehydrogenase. […] Assays were carried out at 30° C. and in the presence of 40 nM Aurora-2.
The plate was preincubated for 10 minutes at 30° C. and the reaction initiated by addition of 10 μl of Aurora-2. Initial reaction rates were determined with a Molecular Devices SpectraMax Plus plate reader over a 10 minute time course. IC50 and Ki data were calculated from non-linear regression analysis using the Prism software package (GraphPad Prism version 3.0cx for Macintosh, GraphPad Software, San Diego Calif., USA).

[5] = biological target: T3, FLT-3 (Homo sapiens, UniProt P36888); assay: FLT-3 inhibition assay, radiometric filter-binding; assay type: biochemical; conditions: read-out: FLT-3 Ki value
T3 sequence (P36888 27-993): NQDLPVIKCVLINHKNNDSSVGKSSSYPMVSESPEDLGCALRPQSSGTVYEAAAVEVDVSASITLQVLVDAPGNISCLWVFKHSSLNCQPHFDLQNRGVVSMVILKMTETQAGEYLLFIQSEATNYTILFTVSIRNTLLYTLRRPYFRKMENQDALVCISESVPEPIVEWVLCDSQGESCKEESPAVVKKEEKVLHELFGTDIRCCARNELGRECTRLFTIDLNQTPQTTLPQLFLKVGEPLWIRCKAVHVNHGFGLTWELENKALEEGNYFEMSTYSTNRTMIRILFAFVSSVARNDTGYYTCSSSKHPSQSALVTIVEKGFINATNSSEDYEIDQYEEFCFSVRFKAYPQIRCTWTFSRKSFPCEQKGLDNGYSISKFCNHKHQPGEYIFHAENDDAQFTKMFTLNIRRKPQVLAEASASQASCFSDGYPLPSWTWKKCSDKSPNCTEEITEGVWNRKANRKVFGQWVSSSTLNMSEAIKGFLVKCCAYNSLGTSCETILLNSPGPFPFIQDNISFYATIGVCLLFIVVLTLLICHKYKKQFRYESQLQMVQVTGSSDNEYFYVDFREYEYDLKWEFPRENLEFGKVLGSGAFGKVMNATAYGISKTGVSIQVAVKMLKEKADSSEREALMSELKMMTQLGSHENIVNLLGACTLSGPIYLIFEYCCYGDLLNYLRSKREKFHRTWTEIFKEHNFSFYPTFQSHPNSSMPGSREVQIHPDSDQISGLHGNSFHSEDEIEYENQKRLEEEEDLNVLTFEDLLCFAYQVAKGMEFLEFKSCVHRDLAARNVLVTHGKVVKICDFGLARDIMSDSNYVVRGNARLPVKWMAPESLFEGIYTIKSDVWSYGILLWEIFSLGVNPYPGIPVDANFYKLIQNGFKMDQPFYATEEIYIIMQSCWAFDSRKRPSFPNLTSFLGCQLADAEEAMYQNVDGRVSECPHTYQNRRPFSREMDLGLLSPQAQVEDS
Procedure: This assay monitors the 33P incorporation into a substrate poly(Glu, Tyr) 4:1 (pE4Y). […] Final substrate concentrations in the assay were 90 μM ATP and 0.5 mg/ml pE4Y (both from Sigma Chemicals, St. Louis, Mo.). […] Reactions were carried out at room temperature.
Two assay solutions were prepared. Solution 1 contains 100 mM HEPES (pH 7.5), 10 mM MgCl2, 25 mM NaCl, 1 mg/ml pE4Y and […] (containing 0.3 mCi of [γ-33^P]ATP for each reaction). Solution 2 contains 100 mM HEPES (pH 7.5), 10 mM MgCl2, 25 mM NaCl, 2 mM DTT, 0.02% BSA and 3 nM FLT-3. The assay was run on a 96 well plate by mixing 50 μl each of Solution 1 and […] of the compounds of the present invention. The reaction was initiated with Solution 2. […] All of the reaction volume was then transferred to a filter plate and washed with 5% TCA by a Harvester 9600 from TOMTEC (Hamden, Conn.). The amount of ^33P incorporation into pE4y was analyzed by a Packard Top Count Microplate Scintillation Counter (Meriden, Conn.). The data was fitted using Prism software to get an IC50 or Ki.

[6] = COLO 205, Colo205 cells, incubated for 96 hours
[7] = COLO 205, Colo205 cells, incubated for 72 hours
[8] = read-out: Aurora A kinase Ki value

Aurora-1 (Aurora B), sequence (Q96GD4 whole entry): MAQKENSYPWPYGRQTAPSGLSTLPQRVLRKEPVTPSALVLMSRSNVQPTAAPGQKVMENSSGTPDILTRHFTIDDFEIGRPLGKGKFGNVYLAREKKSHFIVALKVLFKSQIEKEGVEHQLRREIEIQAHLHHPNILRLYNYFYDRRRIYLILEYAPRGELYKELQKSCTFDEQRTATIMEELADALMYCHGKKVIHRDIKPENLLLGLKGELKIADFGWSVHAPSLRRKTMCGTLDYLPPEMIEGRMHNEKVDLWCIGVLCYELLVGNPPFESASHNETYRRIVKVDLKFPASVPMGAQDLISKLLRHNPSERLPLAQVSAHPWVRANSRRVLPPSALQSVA

Compound | pKi [1] | pKi [3] | pIC50 [2, 7] | pKi [4, 8] | other results
Cc1cc(Nc2cc(N3CCC3)nc(Sc3ccc(NC(=O)c4cccc(CN(C)C)c4)cc3)n2)[nH]n1 [Compound 138] | 5.70 to 6.30 | 5.70 to 7.30 |  |  | pIC50 [2, 6]: 6.00 to 7.30
Cc1cc(Nc2cc(N3CCC3)nc(Sc3ccc(NC(=O)C4(C(F)(F)F)CC4)cc3)n2)[nH]n1 [Compound 142] |  | ≥ 8.00 | 6.70 to 7.52 | 8.30 to 9.00 | pKi [5]: 6.00 to 6.82
Cc1cc(Nc2cc(N3CC(F)(C4CC4)C3)nc(Sc3ccc4c(c3)CN(CC(F)(F)F)C4=O)n2)[nH]n1 [Compound 179] |  | ≥ 8.00 | 6.70 to 7.52 | ≥ 9.00 | pKi ([1]; read-out: JAK3 Ki value): 6.30 to 8.00
Cc1cc(Nc2cc(N3CC(F)(C4CC4)C3)nc(Sc3ccc(NC(=O)[C@H]4CCCN4C(C)C)cc3)n2)[nH]n1 [Compound 193] |  | 5.70 to 7.30 | < 6.70 | 8.30 to 9.00 | pKi [5]: 6.00 to 6.82
Cc1cc(Nc2cc(N3CCC3)nc(Sc3ccc(C(=O)Nc4ccc(Cl)cc4)cc3)n2)n[nH]1 [Compound 21] | ≥ 8.00 | 5.70 to 7.30 |  |  | pIC50 [2, 6]: < 6.00; pKi [4]: 6.70 to 8.30
Cc1cc(Nc2cc(N3CC(O)(C4CC4)C3)nc(Oc3ccc4nc(C)sc4c3)n2)[nH]n1 [Compound 180] | ≥ 8.00 | 7.30 to 8.00 | 6.70 to 7.52 | ≥ 9.00 | 
CCC(=O)Nc1ccc(Sc2nc(Nc3cc(C)n[nH]3)cc(N3CC(O)(C4CCCC4)C3)n2)cc1 [Compound 97] | 6.30 to 8.00 |  |  |  | pIC50 ([2]; COLO 205, 72 h): ≥ 7.52; pIC50 ([2]; COLO 205, 96 h): < 6.00
Cc1cc(Nc2cc(N3CC(F)(C4CC4)C3)nc(Sc3ccc(NC(=O)CC(F)(F)F)nc3)n2)[nH]n1 [Compound 211] | ≥ 8.00 |  |  |  | pIC50 ([2]; COLO 205, 72 h): ≥ 7.52
CCC(=O)Nc1ccc(Sc2nc(Nc3cc(C4CC4)[nH]n3)cc(N3CC(O)(C4CC4)C3)n2)cc1 [Compound 102] | ≥ 8.00 |  |  |  | pIC50 ([2]; COLO 205, 96 h): ≥ 7.30
O=C(Nc1ccc(Sc2nc(Nc3cc(C4CC4)[nH]n3)cc(N3CC(O)(C4CC4)C3)n2)cc1)C1CC1 [Compound 105] | ≥ 8.00 |  |  |  | pIC50 [2, 6]: ≥ 7.30
Cc1cc(Nc2nc(Sc3ccc(NC(=O)c4ccccc4Cl)cc3)nc(N3CCC3)c2F)[nH]n1 [Compound 192] | 5.70 to 6.30 | 7.30 to 8.00 | < 6.70 | 8.30 to 9.00 | 
Cc1cc(Nc2cc(N3CCC3)nc(Sc3ccc(NC(=O)c4ccc(Oc5ccccc5)cc4Cl)cc3)n2)[nH]n1 [Compound 87] | 5.70 to 6.30 | ≥ 8.00 | 6.70 to 7.52 | ≥ 9.00 | 
